From ChEMBL document CHEMBL3507680, “University of Dundee, Gates Library screen for HepG2 cell viability”

Assay: Human HepG2 cell viability assay in 384 well format
Assay type: toxicity, cell-based
Parameters: dose 125 nL, time 70.5 hour; concentration not given beside the values
Conditions: HepG2 cells, read-out: Inhibition

CC(C)N1CCCC(C(=O)NCc2noc(Cc3ccccc3)n2)C1 (stereo not drawn)
cytotoxicity at 70.5 h: 8.23%

Cc1cc(C(=O)N2CCc3c(nc(-c4ccncc4)[nH]c3=O)C2)no1
cytotoxicity at 70.5 h: 2.99%

Cc1ccc(NC(=O)N2CCCC(O)(CO)CC2)cc1Cl (stereo not drawn)
cytotoxicity at 70.5 h: -4.85%

CC(C)CCN1CCNC(=O)C1CC(=O)NCCc1cc(O)ncn1 (stereo not drawn)
cytotoxicity at 70.5 h: -11%

CCC1CN(Cc2nnc(C(C)C)o2)CCC(=O)N1Cc1ccccc1 (stereo not drawn)
cytotoxicity at 70.5 h: -10.7%

CN(Cc1cnccn1)CC1CCOc2ccccc2C1 (stereo not drawn)
cytotoxicity at 70.5 h: -12.2%

CCc1cnc(N)nc1NCCC(=O)NC1CCCCC1
cytotoxicity at 70.5 h: -25.4%

O=C(O)[C@@H]1CN(Cc2ccc3nsnc3c2)C[C@H]1c1cccnc1
cytotoxicity at 70.5 h: 1.8%

O=C(C1CC1)N1C[C@H]2CNC[C@@]2(C(=O)NCCCc2ccccc2)C1
cytotoxicity at 70.5 h: -1.55%

N#Cc1cccc(CN2C(=O)C3(CCNCC3)Nc3ccccc32)c1
cytotoxicity at 70.5 h: 13.4%

Cc1ncnc(N2CCCN(c3nc4ccccc4s3)CC2)c1C
cytotoxicity at 70.5 h: 7.7%

Cc1ncsc1CN1CCN(C)C2(CCC(=O)N(CCO)CC2)C1 (stereo not drawn)
cytotoxicity at 70.5 h: 3.92%

COc1cc(-c2cc(C3CCOC3)c(C#N)c(N)n2)ccc1O (stereo not drawn)
cytotoxicity at 70.5 h: -6.12%

COc1ccccc1[C@@H]1CN(Cc2csc(C(C)=O)c2)C[C@H]1C(=O)O
cytotoxicity at 70.5 h: -3.94%

COc1cccc(Cn2c(C)c(C)oc2=O)c1OC
cytotoxicity at 70.5 h: 1.78%

NC(=O)COc1ccc(CN2CCC(O)(CN3CCCCC3)C2)cc1Cl (stereo not drawn)
cytotoxicity at 70.5 h: -12.1%

Cc1ncsc1CCN(C)C(=O)c1ccc(CN2CCCCC2)cc1
cytotoxicity at 70.5 h: 0.585%

CNC(=O)c1ccnc(N2CCCC(COc3cccc(C)c3)C2)c1 (stereo not drawn)
cytotoxicity at 70.5 h: -20.4%

Cc1n[nH]c(C)c1C(N)C(=O)NCCc1csc(C(C)C)n1 (stereo not drawn)
cytotoxicity at 70.5 h: -11.3%

COc1ccc(C2(C(=O)N3C[C@@H](C(=O)O)[C@H](C(C)C)C3)CC2)cc1
cytotoxicity at 70.5 h: -6.04%

O=C(CCCn1cncn1)N1CCC2(CCCN(CC3CC3)C2=O)C1 (stereo not drawn)
cytotoxicity at 70.5 h: 18.3%

COc1ccc(NC(=O)N2CCC3(CC2)NC(=O)CC3C(=O)O)cc1Cl (stereo not drawn)
cytotoxicity at 70.5 h: 13.1%

CC(C)(C)c1ncc(C(=O)N2CCC(N3CCSCC3)CC2)c(O)n1
cytotoxicity at 70.5 h: -7.4%

Cn1cc(CN(C(=O)C2COc3ccccc3C2)C2CC2)cn1 (stereo not drawn)
cytotoxicity at 70.5 h: -9.16%

CCn1cc(-c2cc(-c3cc(CN(C)C)cs3)nc(N)c2C#N)c(C)n1
cytotoxicity at 70.5 h: -6.34%

CN1CCCC(CNS(=O)(=O)N2CCc3ccccc3C2)C1 (stereo not drawn)
cytotoxicity at 70.5 h: -10.7%

CN(C)S(=O)(=O)N1CC[C@]2(O)CCN(c3cc(C#N)ccn3)C[C@@H]2C1
cytotoxicity at 70.5 h: -7.65%

O=C(NCCc1cscn1)c1coc(CN2CCOCC2)c1
cytotoxicity at 70.5 h: -8.02%

COCc1ncc(CN2C[C@@H](C(=O)O)[C@H](C(C)C)C2)cn1
cytotoxicity at 70.5 h: 9.21%

CCOc1ccc(-n2nc(C)c(CC(C)=O)c2C)cc1C(N)=O
cytotoxicity at 70.5 h: -2.04%

CC(C)c1cc(NCC2(Cn3cccn3)CC2)nc(N)n1
cytotoxicity at 70.5 h: -0.462%

CCn1ccnc1-c1nccn1-c1ccccc1CN1CCOCC1
cytotoxicity at 70.5 h: -8.91%

CC(C)Cn1cncc1CNC(=O)c1cccc(-n2cnnc2)c1
cytotoxicity at 70.5 h: 8.85%

Cc1cc(CN2C[C@H]3CC[C@@H]2CN(C2Cc4ccccc4C2)C3)on1
cytotoxicity at 70.5 h: 3.93%

CCc1ccc(C(=O)N2CCC3(CCC(=O)N(CCN(C)C)C3)CC2)[nH]1
cytotoxicity at 70.5 h: -1.77%

O=C(NCC(O)c1cccc(O)c1)C1CCN(C2CCCCC2)CC1 (stereo not drawn)
cytotoxicity at 70.5 h: -11.8%

Cc1cc2[nH]c(=O)oc2cc1S(=O)(=O)N1C[C@@H](N(C)C)[C@H](C(C)C)C1
cytotoxicity at 70.5 h: -10.7%

CCN(CC)C(=O)[C@@H]1C[C@H](N)CN1c1noc(-c2ccccc2)n1
cytotoxicity at 70.5 h: -3.04%

CC(C)N(CCO)C(=O)C1CCC(=O)N(CCc2ccc(Cl)cc2)C1 (stereo not drawn)
cytotoxicity at 70.5 h: -1.21%

COc1ccc(CN(CC2CCCO2)c2nc3c(s2)c(C)nn3C)cc1 (stereo not drawn)
cytotoxicity at 70.5 h: 41.8%

CC(C)Cc1cc(C(=O)NC(C)(C)c2nnc(N)s2)n(C)n1
cytotoxicity at 70.5 h: -6.76%

CN(C)CC1(O)CCCN(C(=O)Cn2nc3ccccc3n2)CC1 (stereo not drawn)
cytotoxicity at 70.5 h: 11.1%

c1ccc(C(Cn2cnnc2)N2CCOCC2)nc1 (stereo not drawn)
cytotoxicity at 70.5 h: 0.586%
